Target: recombinant CaMKIIδ (Homo sapiens (Human), UniProt Q13557)
Assay: CaMKIIδ biochemical assay (HTRF)
Details: 10 pM CaMKIIδ, 110 nM calmodulin, 12 μM ATP, 1 hour; read-out: CAMKIID-HTRF-384V2 (IC50 - nM)
Experimental: CaMKIIδ Biochemical Assay
The biochemical activity of recombinant CaMKIIδ was measured by monitoring the phosphorylation of a target peptide using Homogenous Time Resolved Fluorescence (HTRF) technology from CisBio Bioassays.

| IC50 [nM] | Structure (SMILES) |
| --- | --- |
| 4.8 | N[C@H]1CCN(C(=O)c2ccnc(-c3cnn4ccc(-c5cccs5)nc34)c2)C1 [Example 85, (S)-(3-aminopyrrolidin-1-yl)(2-(5-(thiophen-2-yl)pyrazolo[1,5-a]pyrimidin-3-yl)pyridin-4-yl)methanone] |
| 0.99 | N[C@@H]1CCC[C@@H]2CCCN(C(=O)c3ccnc(-c4cnn5ccc(-c6cccs6)nc45)c3)[C@@H]21 [Example 86, ((4aR,8R,8aS)-8-aminooctahydroquinolin-1(2H)-yl)(2-(5-(thiophen-2-yl)pyrazolo[1,5-a]pyrimidin-3-yl)pyridin-4-yl)methanone] |
| 45.2 | N[C@H]1CCN(C(=O)c2ccnc(-c3cnn4ccc(-c5ccccc5)nc34)c2)C1 [Example 87, (S)-(3-aminopyrrolidin-1-yl)(2-(5-phenylpyrazolo[1,5-a]pyrimidin-3-yl)pyridin-4-yl)methanone] |
| 13.6 | O=C(c1ccnc(-c2cnn3ccc(-c4ccccc4)nc23)c1)N1CCCCC12CCNC2 (stereo not drawn) [Example 89, (2-(5-phenylpyrazolo[1,5-a]pyrimidin-3-yl)pyridin-4-yl)(2,6-diazaspiro[4.5]decan-6-yl)methanone] |
| 58.5 | C[C@H](N)[C@@H]1CCCCN1C(=O)c1ccnc(-c2cnn3ccc(-c4ccccc4)nc23)c1 [Example 90, ((S)-2-((S)-1-aminoethyl)piperidin-1-yl)(2-(5-phenylpyrazolo[1,5-a]pyrimidin-3-yl)pyridin-4-yl)methanone] |
| 32.1 | O=C(c1ccnc(-c2cnn3ccc(-c4ccccc4)nc23)c1)N1CCC2CNCC21 (stereo not drawn) [Example 92, (hexahydropyrrolo[3,4-b]pyrrol-1(2H)-yl)(2-(5-phenylpyrazolo[1,5-a]pyrimidin-3-yl)pyridin-4-yl)methanone] |
| 27.8 | O=C(c1ccnc(-c2cnn3ccc(-c4ccccc4)nc23)c1)N1CCCC[C@@H]1[C@@H]1CCCN1 [Example 93, (2-(5-phenylpyrazolo[1,5-a]pyrimidin-3-yl)pyridin-4-yl)((R)-2-((S)-pyrrolidin-2-yl)piperidin-1-yl)methanone] |
| 7 | N[C@H]1CC[C@H]2CCCN(C(=O)c3ccnc(-c4cnn5ccc(-c6ccccc6)nc45)c3)[C@H]21 [Example 94, ((4aR,7S,7aR)-7-aminooctahydro-1H-cyclopenta[b]pyridin-1-yl)(2-(5-phenylpyrazolo[1,5-a]pyrimidin-3-yl)pyridin-4-yl)methanone] |
| 390 | O=C(c1ccnc(-c2cnn3ccc(-c4ccccc4)nc23)c1)N1CCC2CCNCC21 (stereo not drawn) [Example 95, (octahydro-1H-pyrrolo[2,3-c]pyridin-1-yl)(2-(5-phenylpyrazolo[1,5-a]pyrimidin-3-yl)pyridin-4-yl)methanone] |
| 12.7 | N[C@@H]1CC[C@H]2CCCN(C(=O)c3ccnc(-c4cnn5ccc(-c6ccccc6)nc45)c3)[C@H]21 [Example 96, ((4aR,7R,7aR)-7-aminooctahydro-1H-cyclopenta[b]pyridin-1-yl)(2-(5-phenylpyrazolo[1,5-a]pyrimidin-3-yl)pyridin-4-yl)methanone] |
| 216 | O=C(c1ccnc(-c2cnn3ccc(-c4ccccc4)nc23)c1)N1CCCC12CCCNC2 (stereo not drawn) [Example 97, (2-(5-phenylpyrazolo[1,5-a]pyrimidin-3-yl)pyridin-4-yl)(1,7-diazaspiro[4.5]decan-1-yl)methanone] |
| 7.36 | N[C@@H]1CCC[C@H]2CCCN(C(=O)c3ccnc(-c4cnn5ccc(-c6ccccc6)nc45)c3)[C@H]21 [Example 98, ((4aS,8R,8aR)-8-aminooctahydroquinolin-1(2H)-yl)(2-(5-phenylpyrazolo[1,5-a]pyrimidin-3-yl)pyridin-4-yl)methanone] |
| 6.98 | N[C@H]1CC[C@@H]2CCCN(C(=O)c3ccnc(-c4cnn5ccc(-c6ccccc6)nc45)c3)[C@@H]21 [Example 99, ((4aS,7S,7aS)-7-aminooctahydro-1H-cyclopenta[b]pyridin-1-yl)(2-(5-phenylpyrazolo[1,5-a]pyrimidin-3-yl)pyridin-4-yl)methanone] |
| 9.54 | O=C(c1ccnc(-c2cnn3ccc(-c4cccs4)nc23)c1)N1CCC[C@@H]2CCNC[C@@H]21 [Example 101, ((4aR,8aR)-octahydro-1,7-naphthyridin-1(2H)-yl)(2-(5-(thiophen-2-yl)pyrazolo[1,5-a]pyrimidin-3-yl)pyridin-4-yl)methanone] |
| 0.04 | CCN(CC)[C@@H](C)CNC(=O)c1cc(N)nc(-c2cnn3ccc(-c4cccs4)nc23)c1 [Example 102, (S)-2-amino-N-(2-(diethylamino)propyl)-6-(5-(thiophen-2-yl)pyrazolo[1,5-a]pyrimidin-3-yl)isonicotinamide] |
| 0.52 | CCN(CC)[C@@H](C)CNC(=O)c1cc(Cl)nc(-c2cnn3ccc(-c4cccs4)nc23)c1 [Example 103, (S)-2-chloro-N-(2-(diethylamino)propyl)-6-(5-(thiophen-2-yl)pyrazolo[1,5-a]pyrimidin-3-yl)isonicotinamide] |
| 3.96 | CCN(CC)[C@@H](C)CNC(=O)c1cc(-c2cnn3ccc(-c4cccs4)nc23)nc(C(C)C)c1 [Example 104, (S)—N-(2-(diethylamino)propyl)-2-isopropyl-6-(5-(thiophen-2-yl)pyrazolo[1,5-a]pyrimidin-3-yl)isonicotinamide] |
| 1.59 | CN(C)c1cc(C(=O)N2CCCC[C@@H]2CN)cc(-c2cnn3ccc(-c4cccs4)nc23)n1 [Example 106, (R)-(2-(aminomethyl)piperidin-1-yl)(2-(dimethylamino)-6-(5-(thiophen-2-yl)pyrazolo[1,5-a]pyrimidin-3-yl)pyridin-4-yl)methanone] |
| 5.62 | CCN(CC)[C@@H](C)CNC(=O)c1cc(-c2cnn3ccc(-c4cccs4)nc23)nc(C(F)(F)F)c1 [Example 107, (S)—N-(2-(diethylamino)propyl)-2-(5-(thiophen-2-yl)pyrazolo[1,5-a]pyrimidin-3-yl)-6-(trifluoromethyl)isonicotinamide] |
| 20.8 | CN(C)c1cc(C(=O)N2CC[C@H](N)C2)cc(-c2cnn3ccc(-c4cccs4)nc23)n1 [Example 109, (S)-(3-aminopyrrolidin-1-yl)(2-(dimethylamino)-6-(5-(thiophen-2-yl)pyrazolo[1,5-a]pyrimidin-3-yl)pyridin-4-yl)methanone] |
| 7.6 | COc1cc(C(=O)N2CC[C@H](N)C2)cc(-c2cnn3ccc(-c4cccs4)nc23)n1 [Example 110, (S)-(3-aminopyrrolidin-1-yl)(2-methoxy-6-(5-(thiophen-2-yl)pyrazolo[1,5-a]pyrimidin-3-yl)pyridin-4-yl)methanone] |
| 0.05 | NC[C@H]1CCCCN1C(=O)c1cc(Cl)nc(-c2cnn3ccc(-c4cccs4)nc23)c1 [Example 111, (R)-(2-(aminomethyl)piperidin-1-yl)(2-chloro-6-(5-(thiophen-2-yl)pyrazolo[1,5-a]pyrimidin-3-yl)pyridin-4-yl)methanone] |
| 0.14 | CCN(CC)[C@@H](C)CNC(=O)c1cc(OC)nc(-c2cnn3ccc(-c4cccs4)nc23)c1 [Example 112, (S)—N-(2-(diethylamino)propyl)-2-methoxy-6-(5-(thiophen-2-yl)pyrazolo[1,5-a]pyrimidin-3-yl)isonicotinamide] |
| 41.9 | NC[C@@H]1CCCCN1C(=O)c1cc(Cl)nc(-c2cnn3ccc(-c4cccs4)nc23)c1 [Example 113, (S)-(2-(aminomethyl)piperidin-1-yl)(2-chloro-6-(5-(thiophen-2-yl)pyrazolo[1,5-a]pyrimidin-3-yl)pyridin-4-yl)methanone] |
| 0.5 | CCN(CC)[C@@H](C)CNC(=O)c1cc(N)nc(-c2cnn3ccc(-c4ccccc4)nc23)c1 [Example 114, (S)-2-amino-N-(2-(diethylamino)propyl)-6-(5-phenylpyrazolo[1,5-a]pyrimidin-3-yl)isonicotinamide] |
| 1.41 | Cc1cc(C(=O)N2CCCC[C@@H]2CN)cc(-c2cnn3ccc(-c4ccccc4)nc23)n1 [Example 115, (R)-(2-(aminomethyl)piperidin-1-yl)(2-methyl-6-(5-phenylpyrazolo[1,5-a]pyrimidin-3-yl)pyridin-4-yl)methanone] |
| 5.89 | NC[C@H]1CCCCN1C(=O)c1cc(-c2cnn3ccc(-c4ccccc4)nc23)nc(C(F)(F)F)c1 [Example 116, (R)-(2-(aminomethyl)piperidin-1-yl)(2-(5-phenylpyrazolo[1,5-a]pyrimidin-3-yl)-6-(trifluoromethyl)pyridin-4-yl)methanone] |
| 8.08 | NC[C@H]1CCCCN1C(=O)c1cc(-c2cnn3ccc(-c4ccccc4)nc23)nc(C2CC2)c1 [Example 117, (R)-(2-(aminomethyl)piperidin-1-yl)(2-cyclopropyl-6-(5-phenylpyrazolo[1,5-a]pyrimidin-3-yl)pyridin-4-yl)methanone] |
| 5.29 | CN(C)c1cc(C(=O)N2CCCC[C@@H]2CN)cc(-c2cnn3ccc(-c4ccccc4)nc23)n1 [Example 118, (R)-(2-(aminomethyl)piperidin-1-yl)(2-(dimethylamino)-6-(5-phenylpyrazolo[1,5-a]pyrimidin-3-yl)pyridin-4-yl)methanone] |
| 71 | CCN[C@@H](C)CNC(=O)c1cc(CC)nc(-c2cnn3ccc(-c4ccccc4)nc23)c1 [Example 119, (S)-2-ethyl-N-(2-(ethylamino)propyl)-6-(5-phenylpyrazolo[1,5-a]pyrimidin-3-yl)isonicotinamide] |

| Structure (SMILES) | IC50 [nM] |
| --- | --- |
| N[C@H]1C[C@@H]2CCC[C@H]1N2C(=O)c1ccnc(-c2cnn3ccc(-c4ccccc4)nc23)c1 [Example 88, ((1S,5R,6S)-6-amino-8-azabicyclo[3.2.1]octan-8-yl)(2-(5-phenylpyrazolo[1,5-a]pyrimidin-3-yl)pyridin-4-yl)methanone] | 50.3 |
| O=C(c1ccnc(-c2cnn3ccc(-c4ccccc4)nc23)c1)N1C2CCCC1CNCC2 (stereo not drawn) [Example 91] | 32.8 |
| O=C(c1ccnc(-c2cnn3ccc(-c4ccccc4)nc23)c1)N1C[C@H]2CC[C@@H](C1)N2 [Example 100, ((1R,5S)-3,8-diazabicyclo[3.2.1]octan-3-yl)(2-(5-phenylpyrazolo[1,5-a]pyrimidin-3-yl)pyridin-4-yl)methanone] | 29.8 |

From US10100058B2, “Fused heterocyclic compounds as CaM kinase inhibitors” (Gilead Sciences, Inc., priority 2016, dated 2018)
